# In US20240415819A1, “MACROCYCLIC COMPOUNDS AS PROTEASOME SUBUNIT BETA TYPE-5 INHIBITORS” (Lead Discovery Center GmbH, priority 2021, published 2024):
# Tested on: A549 (human lung carcinoma cell line)
# Experiment: Glo assay of A549 cells (Table 3; ProteasomeGlo plating scheme)
# Assay type: cell-based
# Conditions: Homo sapiens; A549 cells; read-out: PGLo A549
# Source text: Inhibition is indicated as IC50 [nM] (“-”=not measured). […] • Chymotrypsin-Like Cell-Based Proteasome-GloTM Assay (Promega; […]) • Cell culture 384-well plates (Greiner BioOne; 781080) • Dispensing cassette, MultiDrop Standard tube dispensing cassette (Thermo Scientific; 24072670) • DPBS (Pan BioTech; P04-36500) • Cell culture 384-well plates (Greiner BioOne; 781080) • CPD source plate: diamond-shape plate (Labcyte; LP-0200) • Intermediate plate (Labcyte; P-05525) [table] • a. Remove the plates with cells from the incubator. • b. Take all the plates including the compound plate, intermediate plate and Staurosporine plate to the ECHO. • c. Click on “Open” in the ECHO software and select the protocol “QLI5_25ul_30 uM-Grenier”. • d. Follow the on-screen prompts and instructions once you click “Start” to insert the compound plate, intermediate plate and destination plates. • e. Change the final number of destination plates on the program. • f. Follow the on-screen prompts and instructions once you click “Start” to load the Staurosporine and destination plates. • g. Once all the compounds, DMSO and Staurosporine have been transferred, place the destination plates in a wet tissue box. • h. Place the destination plates back into the incubator and incubate at 37° C., 5% CO2 for 105 minutes. • i. Re-seal all the compound+Stauro diamond and intermediate plates and store in the dark. Chymotrypsin like ProteasomeGlo Assay • 1. Thaw the components of the ProteasomeGlo assay at room temperature including the ProteasomeGlo Buffer, the lyophilized Luciferin Detection Reagent and the Suc-LLVY-Glo Substrate. • 2. Reconstitute the Luciferin Detection Reagent in the amber coloured bottle by adding 50 ml of the ProteasomeGlo Buffer. • 3. Vortex the Suc-LLVY-Glo Substrate briefly to reconstitute the Substrate well. • 4. Spin down the Substrate and add 250 μl of the Substrate to the reconstituted Luciferin Detection Reagent from step 2. • 5. Briefly vortex the amber bottle with the mix to prepare a homogenous solution. • 6. Place the mix prepared in step 5 to sit at room temperature for 60 minutes. • 7. After 60 minutes, pipette 25 μl of the mix from step 5 into all wells with the cells. • 8. Shake the plates for 2-5 minutes to ensure the complete mixing of the ProteasomeGlo reagent with the cells. • 9. Leave the plates in the dark for 10-15 minutes. • 10. Measure the luminescence read-out using the Viktor and the protocol “Luminescence_384Well_0.2 sec”. (Note: The Protoeasome-GloTM Reagent (combined Proteasome-GloTM Substrate, Proteasome-GloTM Buffer and Luciferin Detection Reagent) can be stored at 4° C. or -20° C. for 1 month with minimal loss of activity.)
row,Structure (SMILES),IC50
1,"Cc1ccc2cc1CNC(=O)[C@H](CCc1ccccc1)NC(=O)[C@@H](NC(=O)CCOCCCC1CCCC1)CC(=O)N1CCCC(CCO2)C1 (stereo partly drawn) [Compound 620, 3-(3-cyclopentylpropoxy)-N-((9S,12S)-5^4-methyl-8,11,14-trioxo-9-phenethyl-4-oxa-7,10-diaza-1(3,1)-piperidina-5(1,3)-benzenacyclotetradecaphane-12-yl)propanamide]",< 100 nM

# Tested on: HT-29 cells
# Experiment: CellTiter-Glo luminescent cell viability assay with HT-29 cells (72h incubation)
# Assay type: cell-based, human
# Conditions: Homo sapiens, HT-29, HT29 cells, read-out: CTG HT29
# Procedure: Cell Titer Glo Viability Assay with HT-29 Cells (72h Incubation) The CellTiter-Glo Luminescent Cell Viability Assay (Promega) is a homogeneous method of determining the number of viable cells in culture. It is based on quantification of ATP, indicating the presence of metabolically active cells. On day 1 400 HT-29 cells per well are seeded in white 384well plates (Greiner, #781080) in 25 μl cell culture medium (DMEM (PAN-Biotech #P04-03590)+10% FCS+glutamine). After incubation for 24 h at 37° C./5% CO2 compounds or DMSO are added at different concentrations by Echo Liquid Handling Technology. Cells are further incubated in humidified chambers for 72 h at 37° C. and 5% CO2. Cells treated with the compound vehicle DMSO are used as positive controls and cells treated with 10 μM Staurosporine serve as negative controls. At day 5-72h after compound addition—the CellTiter Glo Reagent is prepared according to the instructions of the kit (Promega Inc.): Reagent is mixed 1:1 with cell culture medium. Thereon, mixture and assay plates are equilibrated at room temperature for 20 min. Equal volumes of the reagent-medium-mixture is added to the volume of culture medium present in each well. The plates are mixed at […] for 2 minutes on an orbital shaker. The microplates are then incubated at room temperature for 10 minutes for stabilization of the luminescent signal. Following incubation the luminescence is recorded on a Victor microplate reader (Perkin Elmer) using a 200 ms integration time. The data is then analyzed with Excel using the XLFIT Plugin (dose response Fit 205) for IC50-determination. As quality control the Z′-factor is calculated from 16 positive and negative control values. […] Inhibition is indicated as IC50 [nM] (“-”=not measured).
row,Structure (SMILES),IC50
1,"Cc1ccc2cc1CNC(=O)[C@H](CCc1ccccc1)NC(=O)CCCCCC(=O)N1CCCC(CCO2)C1 (stereo partly drawn) [Compound 22, (9S)-5^4-methyl-9-phenethyl-4-oxa-7,10-diaza-1(3,1)-piperidina-5(1,3)-benzenacycloheptadecaphane-8,11,17-trione]",1000 to 5000 nM
2,"CCNC(=O)N[C@H]1CC(=O)N2CCCC(CCOc3ccc(C)c(c3)CNC(=O)[C@H](CCc3ccccc3)NC1=O)C2 (stereo partly drawn) [Compound 38, 1-ethyl-3-((9S,12S)-5^4-methyl-8,11,14-trioxo-9-phenethyl-4-oxa-7,10-diaza-1(3,1)-piperidina-5(1,3)-benzenacyclotetradecaphane-12-yl)urea]",< 100 nM
3,"Cc1ccc2cc1CNC(=O)[C@H](CCc1ccccc1)NC(=O)[C@@H](NC(=O)c1cccnc1)CC(=O)N1CCCC(CCO2)C1 (stereo partly drawn) [Compound 41, N-((9S,12S)-5^4-methyl-8,11,14-trioxo-9-phenethyl-4-oxa-7,10-diaza-1(3,1)-piperidina-5(1,3)-benzenacyclotetradecaphane-12-yl)nicotinamide]",< 100 nM
4,"Cc1ccc2cc1CNC(=O)[C@H](CCc1ccccc1)NC(=O)[C@@H](NS(=O)(=O)CCCc1ccccc1)CC(=O)N1CCCC(CCO2)C1 (stereo partly drawn) [Compound 44, N-((9S,12S)-5^4-methyl-8,11,14-trioxo-9-phenethyl-4-oxa-7,10-diaza-1(3,1)-piperidina-5(1,3)-benzenacyclotetradecaphane-12-yl)-3-phenyloropane-1-sulfonamide]",< 100 nM
5,"Cc1ccc2cc1CNC(=O)[C@H](CCc1ccccc1)NC(=O)[C@@H](NC(=O)Cc1cccc(Cl)c1)CC(=O)N1CCCC(CCO2)C1 (stereo partly drawn) [Compound 61, 2-(3-chlorophenyl)-N-((9S,12S)-54-methyl-8,11,14-trioxo-9-phenethyl-4-oxa-7,10-diaza-1(3,1)-piperidina-5(1,3)-benzenacyclotetradecaphane-12-yl)acetamide]",< 100 nM
6,"Cc1cccc(CC(=O)N[C@H]2CC(=O)N3CCCC(CCOc4ccc(C)c(c4)CNC(=O)[C@H](CCc4ccccc4)NC2=O)C3)c1 (stereo partly drawn) [Compound 62, N-((9S,12S)-5^4-methyl-8,11,14-trioxo-9-phenethyl-4-oxa-7,10-diaza-1(3,1)-piperidina-5(1,3)-benzenacyclotetradecaphane-12-yl)-2-(m-tolyl)acetamide]",< 100 nM
7,"Cc1ccc2cc1CNC(=O)C(CCc1cnccn1)NC(=O)[C@@H](NC(=O)[C@@H](C)c1ccccc1)CC(=O)N1CCCC(CCO2)C1 (stereo partly drawn) [Compound 107, (2S)—N-((12S)-5^4-methyl-8,11,14-trioxo-9-(2-(pyrazin-2-yl)ethyl)-4-oxa-7,10-diaza-1(3,1)-piperidina-5(1,3)-benzenacyclotetradecaphane-12-yl)-2-phenylpropanamide]",< 100 nM
8,"CCC1(C(=O)N[C@H]2CC(=O)N3CCCC(CCOc4ccc(C)c(c4)CNC(=O)[C@H](CCc4ccccc4)NC2=O)C3)CCNCC1 (stereo partly drawn) [Compound 151, 4-ethyl-N-((9S,12S)-5^4-methyl-8,11,14-trioxo-9-phenethyl-4-oxa-7,10-diaza-1(3,1)-piperidina-5(1,3)-benzenacyclotetradecaphane-12-yl)piperidine-4-carboxamide]",< 100 nM
9,"Cc1ccc2cc1CNC(=O)[C@H](CCc1ccccc1)NC(=O)[C@@H](NC(=O)Cc1ccc(N)cc1)CC(=O)N1CCC[C@H](CCO2)C1 [Compound 172, 2-(4-aminophenyl)-N-((13R,9S,12S)-5^4-methyl-8,11,14-trioxo-9-phenethyl-4-oxa-7,10-diaza-1(3,1)-piperidina-5(1,3)-benzenacyclotetradecaphane-12-yl)acetamide]",< 100 nM
10,"Cc1ccc2cc1CNC(=O)[C@H](CCc1ccccc1)NC(=O)[C@@H](NC(=O)Cc1ccc(N)cc1)CC(=O)N1CCC[C@@H](CCO2)C1 [Compound 173, 2-(4-aminophenyl)-N-((13S,9S,12S)-5^4-methyl-8,11,14-trioxo-9-phenethyl-4-oxa-7,10-diaza-1(3,1)-piperidina-5(1,3)-benzenacyclotetradecaphane-12-yl)acetamide]",100 to 500 nM
11,"CC(=O)N[C@H]1CC(=O)NCCOc2ccc(C)c(c2)CNC(=O)[C@H](CCc2ccccc2)NC1=O [Compound 252, N-((8S,11S)-1^4-methyl-6,9,12-trioxo-11-phenethyl-2-oxa-5,10,13-triaza-1(1,3)-benzenacyclotetradecaphane-8-yl)acetamide]",100 to 500 nM
12,"CC(=O)N[C@H]1CC(=O)N2CCC(CC2)Oc2ccc(C)c(c2)CNC(=O)[C@H](CCc2ccccc2)NC1=O [Compound 254, N-((7S,10S)-3^4-methyl-6,9,12-trioxo-7-phenethyl-2-oxa-5,8-diaza-1(4,1)-piperidina-3(1,3)-benzenacyclododecaphane-10-yl)acetamide]",100 to 500 nM
13,"CC(=O)N[C@H]1CC(=O)N2CCC(C2)Oc2ccc(C)c(c2)CNC(=O)[C@H](CCc2ccccc2)NC1=O (stereo partly drawn) [Compound 261, N-((7S,10S)-3^4-methyl-6,9,12-trioxo-7-phenethyl-2-oxa-5,8-diaza-1(3,1)-pyrrolidina-3(1,3)-benzenacyclododecaphane-10-yl)acetamide]",100 to 500 nM

# Biological target: T1, β5 subunit of the human constitutive proteasome (CPS) (Homo sapiens, UniProt P28074)
# T1 construct: purchased Boston Biochem E-360
# Experiment: β5 inhibition assay, human constitutive proteasome (Suc-LLVY-AMC)
# Assay type: biochemical
# Conditions: IC50 class, Suc-LLVY-AMC substrate
# Procedure: The enzymatic activity of the β5 subunit of the human constitutive proteasome (CPS) is analyzed. In another assay, which differs from the assay of the human constitutive proteasome only in using the human immunoproteasome (IPS) the enzymatic activity of the β5 subunit of the human immunoproteasome (IPS) is analyzed. […] Inhibition is indicated as IC50 [nM] (“-”=not measured).
row,Structure (SMILES),IC50
1,Cc1ccc2cc1CNC(=O)[C@H](CCc1ccccc1)NC(=O)[C@@H](NC(=O)CCNC(=O)C1CCC3(CCOCC3)CC1)CC(=O)N1CCCC(CCO2)C1 (stereo partly drawn) [Compound 576],< 100 nM
2,"Cc1ccc2cc1CNC(=O)[C@H](CCc1ccccc1)NC(=O)[C@@H](NC(=O)CCOCCCC1CCCC1)CC(=O)N1CCCC(CCO2)C1 (stereo partly drawn) [Compound 620, 3-(3-cyclopentylpropoxy)-N-((9S,12S)-5^4-methyl-8,11,14-trioxo-9-phenethyl-4-oxa-7,10-diaza-1(3,1)-piperidina-5(1,3)-benzenacyclotetradecaphane-12-yl)propanamide]",< 100 nM

# Biological target: T2, β5 subunit of the human immunoproteasome (IPS) (Homo sapiens, UniProt P28062)
# T2 construct: purchased Boston Biochem E-370
# Experiment: β5 inhibition assay, human immunoproteasome (Suc-LLVY-AMC)
# Assay type: biochemical
# Conditions: IC50 class, Suc-LLVY-AMC substrate
# Procedure: The enzymatic activity of the β5 subunit of the human constitutive proteasome (CPS) is analyzed. In another assay, which differs from the assay of the human constitutive proteasome only in using the human immunoproteasome (IPS) the enzymatic activity of the β5 subunit of the human immunoproteasome (IPS) is analyzed. Incubation of the enzyme with its fluorogenic substrate Suc-LLVY-AMC leads to liberation of the fluorescent dye AMC which can be measured with a suitable plate reader. • 100 mM HEPES pH7.5 • 50 mM NaCl • 0.02% SDS • 1 mM DTT (add fresh) • Victor X5 (Perkin Elmer) • Label: Umbeliferone (0.1s) • Excitation wavelength: 355 nm • Emission wavelength: 460 nm • 4 μl human cPS or IPS enzyme in assay buffer (final assay concentration 1 nM) or 4 μl assay buffer for negative controls • Compound addition via acoustic dispenser (Echo 520, Labcyte) • Mix and incubate @ RT for 10 min • 4 μl Suc-LLVY-AMC substrate (final assay concentration 22.6 μM) • Mix and incubate @ RT for 4 h (dark) • Stop reaction with 4 μl Bortezomib (final assay concentration 1 μM) • 15 min @ RT • Measure (Excitation 355 nm; Emission 460 nm)
row,Structure (SMILES),IC50
1,Cc1ccc2cc1CNC(=O)[C@H](CCc1ccccc1)NC(=O)[C@@H](NC(=O)CCNC(=O)C1CCC3(CCOCC3)CC1)CC(=O)N1CCCC(CCO2)C1 (stereo partly drawn) [Compound 576],< 100 nM
2,"Cc1ccc2cc1CNC(=O)[C@H](CCc1ccccc1)NC(=O)[C@@H](NC(=O)CCOCCCC1CCCC1)CC(=O)N1CCCC(CCO2)C1 (stereo partly drawn) [Compound 620, 3-(3-cyclopentylpropoxy)-N-((9S,12S)-5^4-methyl-8,11,14-trioxo-9-phenethyl-4-oxa-7,10-diaza-1(3,1)-piperidina-5(1,3)-benzenacyclotetradecaphane-12-yl)propanamide]",< 100 nM
